Consider 15 compounds from ChEMBL document CHEMBL5113424, “Identification of small-molecule urea derivatives as PTPC modulators targeting the c subunit of F1/Fo-ATP synthase” (Bioorg Med Chem Lett, 2022).

The inhibition is the percentage by which the read-out fell short of the control.

Calls of active or inactive are those of the source. The calls are words filed in the database; no cut-off is given here.

For the first assay, the species on record is Homo sapiens. The experiment in a line: Binding affinity to F1F0-ATP synthase subunit C (unknown origin) measured by cellular thermal shift assay (CETSA).
Conditions: not given
Take `O=C(NC1CCCCC1)NC1CCCCC1`: the outcome was Active.

The subject of another assay is AC16 [Human hybrid]. The assay is described as follows: Inhibition of PTPC in human AC16 cells at 1 uM measured by calcein-cobalt assay relative to control. The format is cell-based.
Conditions: not given
On to `CC(C)(C)NC(=O)NC1CCCCC1`, for which the inhibition is 43.2%.
Regarding `O=C(NC1CCCCC1)NC1CCCCC1`, the inhibition was 28%.
In the case of `O=C(NC1CC1)NC1CC1`, the inhibition is 3.87%.
`CCOC(=O)c1ccc(NC(=O)Nc2ccc(C(=O)OCC)cc2)cc1`: the inhibition is 9.75%.
On the same count and under the same terms, next, `O=C(Nc1ccccc1)Nc1ccccc1`: 28.1%; `N#Cc1ccc(NC(=O)Nc2ccc(C#N)cc2)cc1`: 25.4%.
The same measure, in the same setting: next, `C(=NC1CCCCC1)=NC1CCCCC1`: “Active”; `O=C(NC1CCCC1)NC1CCCC1`: 16.4%; `COc1ccc(NC(=O)Nc2ccccc2)cc1`: 4.6%.

The test system of another assay is AC16 [Human hybrid]. The assay is described as follows: Activation of PTPC in human AC16 cells at 1 uM measured by calcein-cobalt assay relative to control. The format is cell-based.
Conditions: not given
Take `O=C(NCc1ccccc1)NCc1ccccc1`: the inhibition is 30.4%.
Turning to `S=C(NCc1ccccc1)NCc1ccccc1`, the inhibition was 37.2%.
For `S=C(NC1CCCCC1)NC1CCCCC1`, the inhibition is 32.4%.
`S=C(Nc1ccccc1)NC1CCCCC1`: the inhibition was 3%.

Still in this assay, the particulars now being: filed as activator.
Turning to `CC(C)(C)OC(=O)NC1CCCCC1`, the inhibition was 42.5%.
`COc1ccc(NC(=O)Nc2ccc(OC)cc2)cc1`: the inhibition is 53.6%.
